In one assay the target is T1, human TRPV1 (Homo sapiens, UniProt Q8NER1).
T1 construct: expressed in transfected cells; host or cells: HEK293 (hTRPV1/HEK293), zeocin selection
Nature of the assay: Functional assay: block of capsaicin-induced Ca2+ influx, human assay (FLIPR, hTRPV1/HEK293). Type of assay: cell-based. To be noted: hTRPV1/HEK293 cells, 150 nM capsaicin challenge, mean; > value = solubility limit in assay medium. The procedure: (§1) Functional assay: block of capsaicin-induced Ca^2+ influx
(§2) HEK293 cells were transfected with human TRPV1 cloned in pcDNA3.1zeo(+) using the Effectene non-liposomal lipid based transfection kit (Qiagen) (hTRPV1/HEK293). hTRPV1/HEK293 cells were routinely grown as monolayers under selection in zeocin (200 μg/mL; Invitrogen) in Dulbecco's Modified Eagle Medium (DMEM, Gibco BRL) supplemented with 10% fetal bovine serum, and penicillin/streptomycin (50 units/mL) in 5% CO2 at 37° C. Cells were passaged frequently, every 3-5 days, to avoid overgrowth, depletion of essential medium components, or acidic medium exposure. Cells were passaged using a brief wash in 0.05% trypsin with 1 mM EDTA, followed by dissociation in divalent-free phosphate-buffered saline (Hyclone #SH30028.02). Dissociated cells were seeded onto poly-D-lysine coated black-walled 96-well plates (Biocoat; Becton Dickinson #354640) at about 40,000 cells per well and grown for approximately 1 day in culture medium to near confluency. The assay buffer was composed of 130 mM NaCl, 2 mM KCl, 2 mM MgCl2, 10 mM HEPES, 5 mM glucose, and either 2 mM or 20 μM CaCl2. On the day of the experiment, the culture medium was replaced with 2 mM calcium assay buffer using an automated plate washer (EL×405; Biotek, VT). The cells were incubated in 100 μL/well Fluo-3/AM (2 μM; TEFLabs #0116) with Pluronic F127 (100 μg/mL; Sigma #P2443) for 1 h at rt in the dark. After loading the cells, the dye solution was replaced with 50 μL/well of 20 μM calcium assay buffer using the EL×405 plate washer. Test compounds (50 μL/well) were added to the plate and incubated for 30 min. Intracellular Ca^2+ levels were subsequently assayed using a Fluorometric Imaging Plate Reader (FLIPR™ instrument, Molecular Devices, CA) to simultaneously monitor Fluo-3 fluorescence in all wells (λexcitation=488 nm, λemission=540 nm) during challenge with agonist (capsaicin). The IC50 values were determined. Cells were challenged with 150 nM capsaicin and the fluorescence counts were captured following agonist addition at a sampling rate of 0.33 Hz. The contents of the wells were mixed 3 times (40 μL mix volume) immediately after the additions were made. Concentration-dependence of block was determined by exposing each well of cells in duplicate rows of a 96-well plate to a serial dilution of test compound. The concentration series usually started at 10 μM with a three-fold serial decrement in concentration. The magnitude of the capsaicin response was determined by measuring the change in fluo3 fluorescence before and 100 seconds after the addition of the agonist. Data were analyzed using a non-linear regression program (Origin; OriginLab, MA).
(§3) IC50 values shown are the average (mean) of the results obtained. Where activity is shown as greater than (>) a particular value, the value is the solubility limit of the compound in the assay medium.

In the next assay the target is T2, rat TRPV1 (Rattus norvegicus, UniProt O35433).
T2 construct: expressed in transfected cells; host or cells: HEK293 (rTRPV1/HEK293), geneticin selection
T2 sequence (O35433 whole entry): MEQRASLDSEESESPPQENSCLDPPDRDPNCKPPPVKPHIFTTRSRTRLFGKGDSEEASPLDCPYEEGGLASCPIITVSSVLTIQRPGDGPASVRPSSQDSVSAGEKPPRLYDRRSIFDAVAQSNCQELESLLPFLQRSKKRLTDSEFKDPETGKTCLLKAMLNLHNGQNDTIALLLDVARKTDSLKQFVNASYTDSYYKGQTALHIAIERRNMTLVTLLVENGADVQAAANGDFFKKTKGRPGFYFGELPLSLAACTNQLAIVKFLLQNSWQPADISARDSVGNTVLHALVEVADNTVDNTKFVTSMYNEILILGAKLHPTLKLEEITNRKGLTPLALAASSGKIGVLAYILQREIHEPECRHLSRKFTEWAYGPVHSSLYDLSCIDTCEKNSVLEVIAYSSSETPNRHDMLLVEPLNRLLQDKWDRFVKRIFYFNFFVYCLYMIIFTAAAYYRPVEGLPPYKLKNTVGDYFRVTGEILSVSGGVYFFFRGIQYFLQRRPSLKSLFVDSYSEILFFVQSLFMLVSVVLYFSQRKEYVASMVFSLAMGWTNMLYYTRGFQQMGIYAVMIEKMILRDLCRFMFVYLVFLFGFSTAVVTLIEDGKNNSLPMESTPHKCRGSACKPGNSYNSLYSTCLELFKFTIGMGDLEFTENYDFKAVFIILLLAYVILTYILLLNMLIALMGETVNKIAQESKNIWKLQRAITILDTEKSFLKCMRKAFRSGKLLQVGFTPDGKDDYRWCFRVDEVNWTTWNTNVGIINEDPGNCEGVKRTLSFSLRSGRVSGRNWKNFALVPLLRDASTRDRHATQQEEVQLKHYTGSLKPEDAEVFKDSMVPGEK
As to the kind of experiment: Functional assay: block of capsaicin-induced Ca2+ influx, rat assay (FLIPR, rTRPV1/HEK293). Format: cell-based. Particulars: rTRPV1/HEK293 cells, capsaicin challenge, mean; > value = solubility limit in assay medium. On the procedure:
as §1, §2
This assay was performed similarly to the human assay described above, but using HEK293 cells transfected with rat TRPV1 (rTRPV1/HEK293).
as §3

T1 sequence (Q8NER1 whole entry): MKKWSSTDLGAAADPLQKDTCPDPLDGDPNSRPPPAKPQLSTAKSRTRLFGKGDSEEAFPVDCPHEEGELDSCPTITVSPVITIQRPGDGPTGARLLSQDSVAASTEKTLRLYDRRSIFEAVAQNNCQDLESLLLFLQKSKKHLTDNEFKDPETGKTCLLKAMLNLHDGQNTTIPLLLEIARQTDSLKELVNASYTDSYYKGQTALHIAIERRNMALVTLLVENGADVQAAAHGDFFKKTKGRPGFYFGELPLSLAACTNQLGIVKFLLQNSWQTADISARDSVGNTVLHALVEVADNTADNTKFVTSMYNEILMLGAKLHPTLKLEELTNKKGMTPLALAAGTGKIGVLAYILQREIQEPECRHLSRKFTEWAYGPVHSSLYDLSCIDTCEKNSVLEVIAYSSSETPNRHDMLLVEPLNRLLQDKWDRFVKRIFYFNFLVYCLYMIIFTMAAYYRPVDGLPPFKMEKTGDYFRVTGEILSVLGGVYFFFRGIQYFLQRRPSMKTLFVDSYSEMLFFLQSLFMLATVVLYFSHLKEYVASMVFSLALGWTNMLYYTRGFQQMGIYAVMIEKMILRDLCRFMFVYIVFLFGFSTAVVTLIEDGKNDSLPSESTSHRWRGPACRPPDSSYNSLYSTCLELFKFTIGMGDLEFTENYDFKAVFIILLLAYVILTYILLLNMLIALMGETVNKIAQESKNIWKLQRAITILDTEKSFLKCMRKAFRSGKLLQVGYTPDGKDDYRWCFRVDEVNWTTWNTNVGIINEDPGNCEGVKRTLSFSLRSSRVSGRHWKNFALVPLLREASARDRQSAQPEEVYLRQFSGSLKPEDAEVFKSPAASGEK

For `CC(C)(C)c1ccc(Nc2ncnc3[nH]c(Nc4c(Cl)cccc4Cl)nc23)cc1` [Example 3, N^6-(4-tert-Butyl-phenyl)-N^8-(2,6-dichloro-phenyl)-9H-purine-6,8-diamine], the 50% inhibitory concentration (IC50) against human TRPV1 is 2.3 nM; against rat TRPV1, 0.15 nM.

With `FC(F)(F)c1ccc(Nc2ncnc3[nH]c(Nc4c(Cl)cccc4Cl)nc23)cn1` [Example 2, N^8-(2,6-Dichloro-phenyl)-N^6-(6-trifluoromethyl-pyridin-3-yl)-9H-purine-6,8-diamine], on rat TRPV1, 19 nM corresponded to half-maximal inhibition (IC50). As for `FC(F)(F)c1ccc(Nc2ncnc3[nH]c(Nc4ccccc4Cl)nc23)cc1` [Example 7, N^8-(2-Chloro-phenyl)-N^6-(4-trifluoromethyl-phenyl)-9H-purine-6,8-diamine], the IC50 at human TRPV1 and on rat TRPV1 was more than 6670 nM in each case.

Turning to `CS(=O)(=O)c1ccc(Nc2ncnc3[nH]c(Nc4c(Cl)cccc4Cl)nc23)cc1` [Example 5, N^8-(2,6-Dichloro-phenyl)-N^6-(4-methanesulfonyl-phenyl)-9H-purine-6,8-diamine], the IC50 against human TRPV1 amounted to 170 nM; on rat TRPV1, 18 nM. Taken in the same sequence, the figures for `Clc1cccc(Cl)c1Nc1nc2c(Nc3ccccc3)ncnc2[nH]1` [Example 4, N^8-(2,6-Dichloro-phenyl)-N^6-phenyl-9H-purine-6,8-diamine] were 3390 nM and 1750 nM.

Consider `FC(F)(F)c1ccc(Nc2ncnc3[nH]c(Nc4ccccc4C(F)(F)F)nc23)cc1` [Example 8, N^6-(4-Trifluoromethyl-phenyl)-N^8-(2-trifluoromethyl-phenyl)-9H-purine-6,8-diamine], for which the IC50 worked out at 3070 nM at human TRPV1 and 1010 nM against rat TRPV1. Taken in the same sequence, the figures for `FC(F)(F)c1ccc(Nc2ncnc3[nH]c(Nc4ccccc4C(F)(F)F)nc23)cn1` [Example 9, N^8-(2-Trifluoromethyl-phenyl)-N^6-(6-trifluoromethyl-pyridin-3-yl)-9H-purine-6,8-diamine] were 2300 nM and 1050 nM. The corresponding values for `FC(F)(F)c1ccc(Nc2ncnc3[nH]c(Nc4c(Cl)cccc4Cl)nc23)cc1` [Example 1, N^8-(2,6-Dichloro-phenyl)-N^6-(4-trifluoromethyl-phenyl)-9H-purine-6,8-diamine] are 17 nM and 4.9 nM. The corresponding values for `Cn1c(Nc2c(Cl)cccc2Cl)nc2c(Nc3ccc(C(F)(F)F)cc3)ncnc21` [Example 10, N^8-(2,6-Dichloro-phenyl)-9-methyl-N^6-(4-trifluoromethyl-phenyl)-9H-purine-6,8-diamine] are 1460 nM and 1130 nM. Consider `Cc1nc(Nc2ccc(C(F)(F)F)cc2)c2nc(Nc3c(Cl)cccc3Cl)[nH]c2n1` [Example 6, N^8-(2,6-Dichloro-phenyl)-2-methyl-N^6-(4-trifluoromethyl-phenyl)-9H-purine-6,8-diamine], for which the IC50 against human TRPV1 is 29 nM; at rat TRPV1 it was 3 nM.

Source of the values: patent US20090156598A1, “Imidazolopyrimidine modulators of TRPV1” (priority 2007, published 2009).
